Eleven molecules from patent publication US10093630B2, “Pyrazole compounds and methods of making and using same” (ABIDE THERAPEUTICS, INC., priority 2014, dated 2018) can be followed below.

Experiment in all cases: In vitro competitive activity-based protein profiling (gel-based, FP-Rh or HT-01 probe)
Common to all, as to format: biochemical

The target of assay [1] is T1, ABHD6 (Mus musculus, UniProt Q8R2Y0).
T1 construct: Proteomes (mouse brain membrane fraction or cell lysates); from tissue; host or cells: mouse brain membrane fraction (or cell lysates, not specified)
T1 sequence (Q8R2Y0 1-336): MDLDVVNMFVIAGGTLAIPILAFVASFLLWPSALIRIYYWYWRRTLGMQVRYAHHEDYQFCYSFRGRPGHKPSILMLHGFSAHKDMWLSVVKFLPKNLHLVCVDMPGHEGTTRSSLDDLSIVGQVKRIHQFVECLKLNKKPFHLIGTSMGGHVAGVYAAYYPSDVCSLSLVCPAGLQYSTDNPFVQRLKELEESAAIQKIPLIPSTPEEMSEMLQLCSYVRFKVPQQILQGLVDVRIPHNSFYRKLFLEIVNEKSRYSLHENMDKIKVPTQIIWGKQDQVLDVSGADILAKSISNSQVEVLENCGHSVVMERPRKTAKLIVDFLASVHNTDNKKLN
As to conditions: for inhibition at 1 µM: 1 μM inhibitor, read-out: % Inhibition at 1 μM, C = ABHD6; for inhibition at 10 µM: 10 μM inhibitor, read-out: % Inhibition at 10 μM, C = ABHD6; for IC50: mouse brain membrane fraction or cell lysates, 30 min preincubation at 37° C., read-out: Mouse (IC50 value, nM) ABHD6. Put shortly:
(§1)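 Steps: inhibitor dilutions + proteome (1.0 mg/mL), 30 min, 37° C; add FP-Rh or HT-01 (50 μM DMSO stock), 30 min, 37° C; quench in SDS buffer; SDS-PAGE; gel imaging; band densitometry.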

Assay [2] has as its target T2, FAAH (Mus musculus, UniProt O08914).
T2 construct: Proteomes (mouse brain membrane fraction or cell lysates); from tissue; host or cells: mouse brain membrane fraction (or cell lysates, not specified)
T2 sequence (O08914 1-579): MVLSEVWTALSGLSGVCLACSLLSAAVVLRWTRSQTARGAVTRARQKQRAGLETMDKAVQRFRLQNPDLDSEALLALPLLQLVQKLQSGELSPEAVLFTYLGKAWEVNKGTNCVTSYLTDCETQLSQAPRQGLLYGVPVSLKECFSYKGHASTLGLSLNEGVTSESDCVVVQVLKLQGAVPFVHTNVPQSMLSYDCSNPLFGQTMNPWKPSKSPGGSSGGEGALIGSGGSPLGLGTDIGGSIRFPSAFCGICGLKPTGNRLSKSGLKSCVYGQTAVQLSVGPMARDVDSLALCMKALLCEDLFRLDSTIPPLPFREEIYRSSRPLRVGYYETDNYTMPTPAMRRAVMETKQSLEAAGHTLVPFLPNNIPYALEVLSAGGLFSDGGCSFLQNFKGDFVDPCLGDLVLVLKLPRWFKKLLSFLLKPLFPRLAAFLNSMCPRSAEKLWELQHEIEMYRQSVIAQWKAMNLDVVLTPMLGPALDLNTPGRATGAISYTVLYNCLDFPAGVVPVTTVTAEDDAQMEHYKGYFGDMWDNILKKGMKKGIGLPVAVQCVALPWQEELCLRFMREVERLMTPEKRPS
As to conditions: for inhibition at 1 µM: 1 μM inhibitor, read-out: % Inhibition at 1 μM, B = FAAH; for inhibition at 10 µM: 10 μM inhibitor, read-out: % Inhibition at 10 μM, B = FAAH; for IC50: mouse brain membrane fraction or cell lysates, 30 min preincubation at 37° C., read-out: Mouse (IC50 value, nM) FAAH. In outline:
as §1

In assay [3] the target is T3, MAGL (Mus musculus, UniProt O35678).
T3 construct: Proteomes (mouse brain membrane fraction or cell lysates); from tissue; host or cells: mouse brain membrane fraction (or cell lysates, not specified)
T3 sequence (O35678 1-303): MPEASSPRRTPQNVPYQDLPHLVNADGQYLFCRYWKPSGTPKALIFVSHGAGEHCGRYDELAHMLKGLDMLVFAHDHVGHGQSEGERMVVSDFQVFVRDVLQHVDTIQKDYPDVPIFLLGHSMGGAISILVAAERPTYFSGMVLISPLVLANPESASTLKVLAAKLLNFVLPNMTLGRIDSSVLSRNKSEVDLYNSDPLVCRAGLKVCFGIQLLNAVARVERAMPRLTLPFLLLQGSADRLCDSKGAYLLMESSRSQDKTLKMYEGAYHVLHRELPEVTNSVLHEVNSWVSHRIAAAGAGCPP
The settings on record: for inhibition at 1 µM: 1 μM inhibitor; for inhibition at 10 µM: 10 μM inhibitor; for IC50: mouse brain membrane fraction or cell lysates, 30 min preincubation at 37° C., read-out: Mouse (IC50 value, nM) MAGL. Put shortly: as §1

The target of assay [4] is T4, PLA2G7 (Mus musculus, UniProt Q60963).
T4 construct: Proteomes (mouse brain membrane fraction or cell lysates); from tissue; host or cells: mouse brain membrane fraction (or cell lysates, not specified)
T4 sequence (Q60963 22-440): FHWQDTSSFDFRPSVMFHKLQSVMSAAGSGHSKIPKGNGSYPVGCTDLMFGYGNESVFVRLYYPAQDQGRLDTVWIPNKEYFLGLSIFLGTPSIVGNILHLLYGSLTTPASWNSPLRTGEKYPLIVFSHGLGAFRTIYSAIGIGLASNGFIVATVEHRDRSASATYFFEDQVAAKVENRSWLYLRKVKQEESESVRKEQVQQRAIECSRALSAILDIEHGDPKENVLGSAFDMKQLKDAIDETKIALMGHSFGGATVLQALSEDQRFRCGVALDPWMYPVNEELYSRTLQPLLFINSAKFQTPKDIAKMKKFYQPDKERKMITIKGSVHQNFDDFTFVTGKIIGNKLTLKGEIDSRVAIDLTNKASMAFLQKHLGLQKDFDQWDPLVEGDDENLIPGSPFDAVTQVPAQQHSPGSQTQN
As to conditions: for inhibition at 1 µM: 1 μM inhibitor, read-out: % Inhibition at 1 μM, D = PLA2G7; for inhibition at 10 µM: 10 μM inhibitor, read-out: % Inhibition at 10 μM, D = PLA2G7. Put shortly:
as §1

Read-outs that look alike come from different tables or passages of the source.

As for `O=C(N1CCN(Cc2ccc(N3CCCC3)cc2)CC1)n1cc(Cl)cn1` [Example 212, (4-Chloro-1H-pyrazol-1-yl)(4-(4-(pyrrolidin-1-yl)benzyl)piperazin-1-yl)methanone], the inhibition at 1 µM in assay [1] is more than 75%; in assay [2], more than 75%; in assay [3], more than 75%; in assay [4] it was less than 25%. The inhibition at 10 µM in assay [1], in assay [2], in assay [3] and in assay [4] was more than 75% throughout. The IC50 in assay [1] was 100 to 1000 nM; in assay [2], 100 to 1000 nM; in assay [3] it was less than 100 nM.
As for `Cc1cnn(C(=O)N2CCCN(S(C)(=O)=O)CC2)c1` [Example 166, (4-Methyl-1H-pyrazol-1-yl)(4-(methylsulfonyl)-1,4-diazepan-1-yl)methanone], the inhibition at 10 µM in assay [1], in assay [2], in assay [3] and in assay [4] was less than 25% throughout.
`O=C(c1cnn(C(=O)N2CCN(Cc3ccc(-c4ccccc4)cc3OCc3ccccc3)CC2)c1)N1CCCC1` [Example 291, (4-((3-(Benzyloxy)biphenyl-4-yl)methyl)piperazin-1-yl)(4-(pyrrolidine-1-carbonyl)-1H-pyrazol-1-yl)methanone]: the inhibition at 1 µM was more than 75% in assay [1] (gel-based competitive ABPP), more than 75% in assay [2] (gel-based competitive ABPP), more than 75% in assay [3] (gel-based competitive ABPP) and less than 25% in assay [4] (gel-based competitive ABPP). For the same molecule, the inhibition at 10 µM in assay [1] (gel-based competitive ABPP) is more than 75%; in assay [2] (gel-based competitive ABPP), more than 75%; in assay [3] (gel-based competitive ABPP), more than 75%; in assay [4] (gel-based competitive ABPP) it was 25 to 75%.
As for `Cc1cnn(C(=O)N2CCN(Cc3ccc(OCc4ccccc4)cc3)CC2)c1` [Example 20, (4-(4-(Benzyloxy)benzyl)piperazin-1-yl)(4-methyl-1H-pyrazol-1-yl)methanone], the inhibition at 1 µM was 25 to 75% in assay [1], less than 25% in assay [2], 25 to 75% in assay [3] and less than 25% in assay [4]. For the same molecule, the inhibition at 10 µM in assay [1] is more than 75%; in assay [2] it was more than 75%; in assay [3] it was more than 75%; in assay [4], 25 to 75%.
Turning to `O=C(N1CCCCC1)n1cc(-c2ccccc2)cn1` [Example 136, (4-Phenyl-1H-pyrazol-1-yl)(piperidin-1-yl)methanone], the inhibition at 1 µM in assay [1] was more than 75%; in assay [2] it was more than 75%; in assay [3], less than 25%; in assay [4], more than 75%. For the same molecule, the inhibition at 10 µM in assay [1] was more than 75%; in assay [2], more than 75%; in assay [3], less than 25%; in assay [4], more than 75%.
On to `CNC(=O)c1cnn(C(=O)N2CCN(Cc3ccc(Cl)cc3)CC2)c1` [Example 223, 1-(4-(4-Chlorobenzyl)piperazine-1-carbonyl)-N-methyl-1H-pyrazole-4-carboxamide], for which the inhibition at 1 µM in assay [1], in assay [2], in assay [3] and in assay [4] was more than 75% throughout. Besides, the IC50 is less than 100 nM in assay [1], 100 to 1000 nM in assay [2] and 100 to 1000 nM in assay [3].
Regarding `O=C(c1cnn(C(=O)N2CCN(Cc3ccncn3)CC2)c1)N1CCCCC1` [Example 73, Piperidin-1-yl(1-(4-(pyrimidin-4-ylmethyl)piperazine-1-carbonyl)-1H-pyrazol-4-yl)methanone], the inhibition at 1 µM was less than 25% in assay [1], less than 25% in assay [2], less than 25% in assay [3] and more than 75% in assay [4]. The inhibition at 10 µM was more than 75% in assay [1], 25 to 75% in assay [2], less than 25% in assay [3] and more than 75% in assay [4].
Turning to `CCN(Cc1cccc(Cl)c1)C(=O)n1cc(Cl)cn1` [Example 134, 4-Chloro-N-(3-chlorobenzyl)-N-ethyl-1H-pyrazole-1-carboxamide], the inhibition at 1 µM in assay [1] was less than 25%; in assay [2], more than 75%; in assay [3] it was 25 to 75%; in assay [4], less than 25%. In addition, the inhibition at 10 µM in assay [1] was more than 75%; in assay [2], more than 75%; in assay [3], more than 75%; in assay [4] it was less than 25%. Also, the IC50 is more than 1000 nM in assay [1], 100 to 1000 nM in assay [2] and more than 1000 nM in assay [3].
For `O=C(N1CCN(Cc2ccc(-c3ccccc3)cc2)CC1)n1cccn1` [Example 22, (4-([1,1′-Biphenyl]-4-ylmethyl)piperazin-1-yl)(1H-pyrazol-1-yl)methanone], the inhibition at 1 µM in assay [1] is less than 25%; in assay [2], less than 25%; in assay [3], more than 75%; in assay [4], less than 25%. In addition, the inhibition at 10 µM was more than 75% in assay [1], more than 75% in assay [2], more than 75% in assay [3] and less than 25% in assay [4].
As to `N#Cc1cnn(C(=O)N2CCN(Cc3ccccc3)CC2)c1` [Example 9, 1-(4-Benzylpiperazine-1-carbonyl)-1H-pyrazole-4-carbonitrile], the inhibition at 1 µM in assay [1], in assay [2], in assay [3] and in assay [4] was more than 75% throughout. Moreover, the inhibition at 10 µM in assay [1], in assay [2], in assay [3] and in assay [4] was more than 75% throughout. In addition, the IC50 in assay [1] is less than 100 nM; in assay [2], 100 to 1000 nM; in assay [3], less than 100 nM.
On to `O=C(N1CCN(Cc2ccncc2)CC1)n1cc(-c2ccccc2)cn1` [Example 59, (4-Phenyl-1H-pyrazol-1-yl)(4-(pyridin-4-ylmethyl)piperazin-1-yl)methanone], for which the inhibition at 1 µM in assay [1] and in assay [4] was more than 75% in each case. For the same molecule, the inhibition at 10 µM in assay [1] is more than 75%; in assay [2], more than 75%; in assay [3] it was 25 to 75%; in assay [4], more than 75%. In addition, in assay [1], the IC50 lay within 100 to 1000 nM.
